biological target: T1, HCV NS5B polymerase (Hepatitis C virus genotype 1b, UniProt P26663); assay: Assay for inhibition of HCV NS5B polymerase (RdRp, 3H-UTP incorporation on heteromeric RNA template); type: biochemical; conditions: heterogeneous template dCoh, 2 nM DC55-lb.BK or 10 nM DC55-2b.2, NTPs 1 uM, room temperature 2 hours
T1 construct: RNA-dependent RNA polymerase (NS5B) of the hepatitis C virus (HCV)
Procedure: The effectiveness of the compounds of the present invention as inhibitors of HCV NS5B RNA-dependent RNA polymerase (RdRp) was measured in the following assay.
This assay was used to measure the ability of the nucleoside derivatives of the present invention to inhibit the enzymatic activity of the RNA-dependent RNA polymerase (NS5B) of the hepatitis C virus (HCV) on a heteromeric RNA template.
Assay Buffer Conditions: (52.5 μL-total/reaction)
20 nM heterogeneous template dCoh
2.5 μl/reaction inhibitor compound in H2O
The compounds were tested at various concentrations up to 100 μM final concentration. Nucleoside derivatives were pipetted into wells of a 96-well plate. The enzyme diluted in the reaction buffer was pipetted into the wells and incubated at room temperature for 10 minutes; then the template dCoh was added and incubated for 10 minutes at room temperature. The reaction was initiated by addition of a mixture of nucleotide triphosphates (NTP's), including the radiolabeled UTP, and allowed to proceed at room temperature for 2 hours. Blank samples were done omitting the dCoh template. The reaction was quenched by addition of 50 ul TCA 20% (trichloroacetic acid)/NaPPi 20 mM and the plates were put in ice for 5 minutes. Then, the mixtures were filtered onto Unifilter GF/B 96-well plates (PerkinElmer), washed with TCA 2.5%. 50 ul/well of scintillator solution (Microscint 20, PerkinElmer) were added and the plates were counted in a scintillator counter.
The percentage of inhibition was calculated according to the following equation:
% Inhibition=[1−(cpm in test reaction−cpm in blank)/(cpm in control reaction−cpm in blank)]×100.

T1 sequence (P26663 2420-2955): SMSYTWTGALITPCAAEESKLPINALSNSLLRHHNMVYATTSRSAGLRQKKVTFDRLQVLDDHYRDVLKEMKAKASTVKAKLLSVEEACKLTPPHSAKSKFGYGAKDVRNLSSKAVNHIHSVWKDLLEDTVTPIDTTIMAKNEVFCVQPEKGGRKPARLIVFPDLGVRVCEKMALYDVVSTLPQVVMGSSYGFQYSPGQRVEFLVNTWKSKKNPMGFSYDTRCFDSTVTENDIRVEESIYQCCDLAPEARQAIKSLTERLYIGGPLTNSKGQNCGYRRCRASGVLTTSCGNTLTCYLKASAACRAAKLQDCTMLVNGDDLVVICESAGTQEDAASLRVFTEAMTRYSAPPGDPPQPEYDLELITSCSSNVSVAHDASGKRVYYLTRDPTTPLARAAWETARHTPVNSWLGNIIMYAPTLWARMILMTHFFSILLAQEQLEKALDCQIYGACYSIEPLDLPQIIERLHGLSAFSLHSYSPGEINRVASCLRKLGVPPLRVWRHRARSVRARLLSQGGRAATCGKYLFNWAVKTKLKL

| Compound | IC50 |
| --- | --- |
| Cn1cc(-c2cn([C@@H]3O[C@H](COP(=O)(O)OP(=O)(O)OP(=O)(O)O)[C@@H](O)[C@@]3(C)O)c3ncnc(N)c23)nn1 [Compound 17, 7-(2-C-methyl-5-triphospho-β-D-ribofuranosyl)-5-(1-methyl-1H-1,2,3-triazol-4-yl)-7H-pyrrolo[2,3-d]pyrimidin-4-amine] | < 50 µM |
| C[C@@]1(F)[C@H](O)[C@@H](COP(=O)(O)OP(=O)(O)OP(=O)(O)O)O[C@H]1n1cc(-c2ccn[nH]2)c2c(N)ncnc21 [Compound 20, 7-(2-deoxy-2-fluoro-2-methyl-5-triphospho-β-D-ribofuranosyl)-5-(1H-pyrazol-5-yl)-7H-pyrrolo[2,3-d]pyrimidin-4-amine] | < 1 µM |
| C[C@@]1(O)[C@H](O)[C@@H](COP(=O)(O)OP(=O)(O)OP(=O)(O)O)O[C@H]1n1nc(-c2cc[nH]n2)c2c(N)ncnc21 [Compound 26, 1-[5-O-(hydroxy{[hydroxy(phosphonooxy)phosphoryl]oxy}phosphoryl)-2-C-methyl-b-D-ribofuranosyl]-3-(1H-pyrazol-3-yl)-1H-pyrazolo[3,4-d]pyrimidin-4-amine] | < 50 µM |
| C[C@@]1(O)[C@H](O)[C@@H](COP(=O)(O)OP(=O)(O)OP(=O)(O)O)O[C@H]1n1cc(-c2nnco2)c2c(N)ncnc21 [Compound 28, 7-(2-C-methyl-5-triphospho-β-D-ribofuranosyl)-5-(1,3,4-oxadiazol-2-yl)-7H-pyrrolo[2,3-d]pyrimidin-4-amine] | < 50 µM |

Second part, the compound after the results:

| IC50 | Compound |
| --- | --- |
| < 1 µM | C[C@@]1(F)[C@H](O)[C@@H](COP(=O)(O)OP(=O)(O)OP(=O)(O)O)O[C@H]1n1cc(-c2ncon2)c2c(N)ncnc21 [Compound 18, 7-(2-deoxy-2-fluoro-2-methyl-5-triphospho-β-D-ribofuranosyl)-5-(1,2,4-oxadiazol-3-yl)-7H-pyrrolo[2,3-d]pyrimidin-4-amine] |
| < 1 µM | C[C@@]1(F)[C@H](O)[C@@H](COP(=O)(O)OP(=O)(O)OP(=O)(O)O)O[C@H]1n1cc(-c2ncco2)c2c(N)ncnc21 [Compound 19, 7-(2-deoxy-2-fluoro-2-methyl-5-triphospho-β-D-ribofuranosyl)-5-(1,3-oxazol-2-yl)-7H-pyrrolo[2,3-d]pyrimidin-4-amine] |
